Data on 1 molecule can be found in patent US20250179027A1, “CYCLOALKYL OR HETEROCYCLYL SUBSTITUTED HETEROARYL COMPOUND, AND COMPOSITION AND USE THEREOF” (Shenzhen TargetRx, Inc., priority 2022, published 2025).

Assay [1] concerns the target T1, BTK kinase (Homo sapiens, UniProt Q06187).
T1 construct: purchased Invitrogen PV3587
Description: HTRF kinase activity inhibition assay, BTK. The following applies: HTRF TK kit. It counts as biochemical. The source says:
(§1) In this assay, the HTRF TK Kit (Catalog No. 62TKOPEC) provided by Cisbio was used to detect the inhibitory activity of compounds on BTK kinase and BTK C481S kinase and the selectivity of compounds relative to EGFR, ITK and TEC kinases.
(§2) Reagents and consumables: BTK kinase (Invitrogen, Catalog No. PV3587), BTK C481S (Carna, Product No. 08-547), ITK (Carna, Product No. 08-181), EGFR (Carna, Product No. 08-115), TEC (Carna, Product No. 08-182), HTRF-TK kit (Cisbio, Product No. 62TKOPEC), MgCl2 (Sigma, Product No. M1028), MnCl2 (Sigma, Product No. M1787), DTT (Sigma, Product No. D0632), ATP (Sigma, Product No. A7699-1 g), DMSO (Sigma, Product No. D2650), 384-well plate (PE, Product No. 6008280).
(§3) The entire operation steps were carried out on ice, and the total reaction volume was 10 μL. The compound (4 μL), substrate and ATP (4 μL), kinase (2 μL) were added in sequence to a 384-well plate, and shaked for 30 seconds. After an appropriate time at room temperature, the detection reagent was added. After 1 hour at room temperature, the plate was detected with a microplate reader. The specific steps were as follows: • a) 1× kinase buffer solution required for kinase detection was calculated according to the amount of the detection compound, and prepared as needed; • b) compounds with 2.5×working concentration were prepared, the 100 times gradient concentration solution of compounds was diluted by 4 μL to the desired concentration, mixed well, and added to each well at 4 μL per well; • c) 5×working concentration of substrate and ATP were prepared, mixed in a ratio of 1:1 before adding to a 384-well plate, and added to each well at 4 μL per well; • d) 5×working concentration of kinase was prepared, and 2 μL was added to each well; • e) the plate was shaked on a microplate oscillator for 30 seconds, sealed with a sealing membrane, and reacted at room temperature for an appropriate time; • f) 4×working concentrations of streptavidin XL-665 and TK antibody-cryptate compound were prepared, mixed in a ratio of 1:1 before adding to a 384-well plate, and added to each well at 10 μL per well; • g) the plate was read after reacting at room temperature for 1 hour; • h) the wells with only substrate, ATP and 1% DMSO added but no kinase were blank control wells, and the wells with only substrate, ATP, 1% DMSO and kinase were positive control wells.
(§4) Readings: The values of 620 nm (cryptate) and 665 nm (XL665) were read with a BioTek Synerg Neo2 microplate reader, the ratio of 665/620 per well was calculated, and the data were exported. Data analysis: IC50 was calculated using GraphPad Prism 7.0 software. The following nonlinear fitting formula was used to obtain the IC50 (half inhibitory concentration) of compounds:
(§5) [formula] • X: Compound concentration log value • Y: Inhibition rate (% inhibition)
(§6) The kinase inhibition rate (% inhibition rate) was calculated as: […]
Background: In TR-FRET formats the signal depends on donor and acceptor labels being close together.

The target in assay [2] is T2, phosphorylated BTK Y223 in NIH/3T3 BTK C481S cells (Homo sapiens, UniProt Q06187, C481S).
T2 construct: expressed in transfected cells; host or cells: NIH/3T3 (mouse fibroblasts) engineered to express BTK C481S
T2 sequence (Q06187 whole entry C481S): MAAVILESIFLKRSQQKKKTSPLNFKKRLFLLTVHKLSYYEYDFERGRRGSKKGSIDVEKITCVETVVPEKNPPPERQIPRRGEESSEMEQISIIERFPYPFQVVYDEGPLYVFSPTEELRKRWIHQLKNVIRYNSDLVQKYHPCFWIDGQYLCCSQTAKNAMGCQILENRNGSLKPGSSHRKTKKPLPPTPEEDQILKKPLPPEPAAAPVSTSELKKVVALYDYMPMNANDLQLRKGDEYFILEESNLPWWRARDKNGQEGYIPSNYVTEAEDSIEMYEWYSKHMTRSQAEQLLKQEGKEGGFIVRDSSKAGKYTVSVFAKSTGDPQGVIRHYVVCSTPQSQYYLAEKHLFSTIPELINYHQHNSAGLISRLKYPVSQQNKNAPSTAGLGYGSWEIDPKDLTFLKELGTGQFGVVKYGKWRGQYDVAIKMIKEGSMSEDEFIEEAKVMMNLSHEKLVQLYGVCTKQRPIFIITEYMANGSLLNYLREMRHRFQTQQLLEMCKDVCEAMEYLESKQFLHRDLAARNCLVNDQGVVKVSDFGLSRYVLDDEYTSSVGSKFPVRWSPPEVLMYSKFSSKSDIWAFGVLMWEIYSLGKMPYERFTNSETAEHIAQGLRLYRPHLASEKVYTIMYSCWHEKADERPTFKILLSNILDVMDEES
Nature of the assay: Phosphor-BTK(Y223) assay, NIH/3T3 BTK C481S cells. It counts as cell-based. The following applies: phosphorylated BTK Y223, NIH/3T3 BTK C481S cells; read-out: NIH/3T3 BTK-C481S pBTK IC50. In a few lines:
(§7)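 NIH/3T3 cells expressing BTK WT (7.5k/well) or C481S (10k/well) were treated with compound for 0.5 h at 37 °C, then 1 mM Na3VO4 was added for 2 h. Lysates were probed overnight at room temperature with HTRF p-BTK(Y223) cryptate/d2 antibodies (665/620 nm ratio). IC50 came from nonlinear fit of % inhibition against log concentration.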

Assay [3] concerns the target T3, phosphorylated BTK Y223 in NIH/3T3 BTK WT cells (Homo sapiens, UniProt Q06187).
T3 construct: expressed in transfected cells; host or cells: NIH/3T3 (mouse fibroblasts) engineered to express BTK WT
Description: Phosphor-BTK(Y223) assay, NIH/3T3 BTK WT cells. It counts as cell-based. The following applies: phosphorylated BTK Y223, NIH/3T3 BTK WT cells; read-out: NIH/3T3 BTK-WT pBTK IC50. In a few lines:
as §7

The target in assay [4] is T4, BTK C481S kinase (Homo sapiens, UniProt Q06187, C481S).
T4 construct: purchased Carna 08-547
T4 sequence (Q06187 whole entry C481S): as above
Description: HTRF kinase activity inhibition assay, BTK C481S. The assay is classed as biochemical. The following applies: HTRF TK kit.
From the text: as §1, §2, §3, §4, §5, §6

Where only a bound is given, the exact number is not on record here.

T1 sequence (Q06187 whole entry): as the sequence (Q06187 whole entry C481S) above, with S481C counted along it
T3 sequence (Q06187 whole entry): as the sequence (Q06187 whole entry C481S) above, with S481C counted along it

As for `COc1ccc(F)cc1C(=O)NCc1ccc(-c2nn([C@H]3CC[C@H](CO)CC3)c3ncnc(N)c23)cc1` [Example 56, trans-N-(4-(4-amino-1-((1R,4R)-4-(hydroxymethyl)cyclohexyl)-1H-pyrazolo[3,4-d]pyrimidin-3-yl)benzyl)-5-fluoro-2-methoxybenzamide], the IC50 in assay [1] was at most 10 nM; in assay [2], at most 25 nM; in assay [3], at most 25 nM; in assay [4], at most 10 nM.
